How the values were obtained:
[1] = target: CDK1/Cyclin E (Homo sapiens) (UniProt P06493+P24864+O96020); assay: Selectivity interaction (KinaseProfilerTM (Merck Millipore) ) EUB0001631a CDK1; assay type: protein-complex assay; conditions: at 10 µM
[2] = target: CDK1/Cyclin E (Homo sapiens) (UniProt P06493+P24864); assay: Selectivity interaction (NanoBRET assay in HEK293T cells) EUB0001631a CDK1; assay type: cell-based; conditions: HEK-293T, at 10 µM
[3] = target: CDK10/Cyclin L2 (Homo sapiens) (UniProt Q15131+Q96S94); assay: Selectivity interaction (NanoBRET assay in HEK293T cells) EUB0001631a CDK10; assay type: cell-based; conditions: HEK-293T, at 10 µM
[4] = target: CDK11A/Cyclin L2 (Homo sapiens) (UniProt Q9UQ88+Q96S94); assay: Selectivity interaction (NanoBRET assay in HEK293T cells) EUB0001631a CDK11A; assay type: cell-based; conditions: HEK-293T, at 10 µM
[5] = target: CDK11B/Cyclin L2 (Homo sapiens) (UniProt P21127+Q96S94); assay: Selectivity interaction (NanoBRET assay in HEK293T cells) EUB0001631a CDK11B; assay type: cell-based; conditions: HEK-293T, at 10 µM
[6] = target: CDK12/Cyclin K (Homo sapiens) (UniProt O75909+Q9NYV4); assay: Selectivity interaction (NanoBRET assay in HEK293T cells) EUB0001631a CDK12; assay type: cell-based; conditions: HEK-293T, at 10 µM
Chain of CDK12/Cyclin K (Homo sapiens) (O75909 whole entry, looked up): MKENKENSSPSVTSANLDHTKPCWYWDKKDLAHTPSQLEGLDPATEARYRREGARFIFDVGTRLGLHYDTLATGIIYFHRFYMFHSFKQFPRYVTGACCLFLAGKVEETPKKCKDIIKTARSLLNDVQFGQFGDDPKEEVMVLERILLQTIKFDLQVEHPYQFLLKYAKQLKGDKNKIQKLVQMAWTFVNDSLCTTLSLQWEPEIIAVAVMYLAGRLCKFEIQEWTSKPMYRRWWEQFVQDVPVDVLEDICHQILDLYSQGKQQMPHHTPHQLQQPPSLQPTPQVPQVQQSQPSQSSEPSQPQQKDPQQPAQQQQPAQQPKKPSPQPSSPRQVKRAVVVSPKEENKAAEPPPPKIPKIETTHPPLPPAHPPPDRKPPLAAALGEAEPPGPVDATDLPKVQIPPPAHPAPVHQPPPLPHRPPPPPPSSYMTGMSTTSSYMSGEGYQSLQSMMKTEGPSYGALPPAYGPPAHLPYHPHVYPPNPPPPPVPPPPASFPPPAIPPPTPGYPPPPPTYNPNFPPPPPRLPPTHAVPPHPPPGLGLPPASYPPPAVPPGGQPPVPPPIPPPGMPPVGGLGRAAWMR
Chain of CDK12/Cyclin K (Homo sapiens) (Q9NYV4 whole entry, looked up): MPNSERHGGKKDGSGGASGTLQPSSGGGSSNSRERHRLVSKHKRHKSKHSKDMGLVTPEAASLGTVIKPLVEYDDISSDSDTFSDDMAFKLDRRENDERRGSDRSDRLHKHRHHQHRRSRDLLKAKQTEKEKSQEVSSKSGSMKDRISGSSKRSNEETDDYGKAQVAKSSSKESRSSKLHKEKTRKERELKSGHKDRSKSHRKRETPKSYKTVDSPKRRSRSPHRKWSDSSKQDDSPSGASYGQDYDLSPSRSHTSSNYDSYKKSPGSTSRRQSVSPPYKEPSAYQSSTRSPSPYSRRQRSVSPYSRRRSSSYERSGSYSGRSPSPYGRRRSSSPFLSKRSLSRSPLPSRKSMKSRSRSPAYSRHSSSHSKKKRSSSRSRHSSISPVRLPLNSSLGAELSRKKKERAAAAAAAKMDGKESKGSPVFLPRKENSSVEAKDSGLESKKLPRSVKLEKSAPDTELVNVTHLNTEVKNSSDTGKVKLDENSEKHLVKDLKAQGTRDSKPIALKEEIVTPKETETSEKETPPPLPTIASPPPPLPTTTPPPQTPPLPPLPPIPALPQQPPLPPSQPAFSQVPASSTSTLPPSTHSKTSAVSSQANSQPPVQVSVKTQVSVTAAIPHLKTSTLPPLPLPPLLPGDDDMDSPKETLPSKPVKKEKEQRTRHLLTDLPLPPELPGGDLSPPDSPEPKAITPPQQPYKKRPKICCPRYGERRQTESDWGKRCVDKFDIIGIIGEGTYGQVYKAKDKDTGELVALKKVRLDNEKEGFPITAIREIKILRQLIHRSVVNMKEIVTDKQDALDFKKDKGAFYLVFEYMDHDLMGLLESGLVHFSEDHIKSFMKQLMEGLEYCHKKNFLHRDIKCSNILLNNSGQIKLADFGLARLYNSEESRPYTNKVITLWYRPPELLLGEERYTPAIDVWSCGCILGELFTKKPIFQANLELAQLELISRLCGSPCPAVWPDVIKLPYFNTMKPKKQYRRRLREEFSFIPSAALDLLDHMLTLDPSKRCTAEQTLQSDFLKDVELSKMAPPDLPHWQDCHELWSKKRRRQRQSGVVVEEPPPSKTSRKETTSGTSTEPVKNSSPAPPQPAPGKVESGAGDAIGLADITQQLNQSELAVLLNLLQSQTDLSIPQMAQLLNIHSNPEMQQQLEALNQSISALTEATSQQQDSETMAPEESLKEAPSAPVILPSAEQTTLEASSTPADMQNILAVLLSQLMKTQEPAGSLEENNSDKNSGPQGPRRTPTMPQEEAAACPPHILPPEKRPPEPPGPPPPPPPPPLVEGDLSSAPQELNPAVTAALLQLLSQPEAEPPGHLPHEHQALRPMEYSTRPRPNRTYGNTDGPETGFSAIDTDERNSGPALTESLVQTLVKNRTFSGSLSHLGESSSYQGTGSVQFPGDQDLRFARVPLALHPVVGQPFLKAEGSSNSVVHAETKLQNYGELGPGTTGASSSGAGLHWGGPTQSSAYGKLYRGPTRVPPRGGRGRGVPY

[7] = target: Cyclin-dependent kinase 13/Cyclin-K (Homo sapiens) (UniProt Q14004+O75909); assay: Selectivity interaction (NanoBRET assay in HEK293T cells) EUB0001631a CDK13; assay type: cell-based; conditions: HEK-293T, at 10 µM
[8] = target: Cyclin-dependent kinase 14/Cyclin-Y (Homo sapiens) (UniProt O94921+Q8ND76); assay: Selectivity interaction (NanoBRET assay in HEK293T cells) EUB0001631a CDK14; assay type: cell-based; conditions: HEK-293T, at 10 µM
[9] = target: CDK15/Cyclin Y (Homo sapiens) (UniProt Q96Q40+Q8ND76); assay: Selectivity interaction (NanoBRET assay in HEK293T cells) EUB0001631a CDK15; assay type: cell-based; conditions: HEK-293T, at 10 µM
[10] = target: Cyclin-Y/Cyclin-dependent kinase 16 (Homo sapiens) (UniProt Q00536+Q8ND76); assay: Selectivity interaction (NanoBRET assay in HEK293T cells) EUB0001631a CDK16; assay type: cell-based; conditions: HEK-293T, at 10 µM
[11] = target: CDK17/Cyclin-Y (Homo sapiens) (UniProt Q00537+Q8ND76); assay: Selectivity interaction (NanoBRET assay in HEK293T cells) EUB0001631a CDK17; assay type: cell-based; conditions: HEK-293T, at 10 µM
[12] = target: CDK18/Cyclin Y (Homo sapiens) (UniProt Q07002+Q8ND76); assay: Selectivity interaction (NanoBRET assay in HEK293T cells) EUB0001631a CDK18; assay type: cell-based; conditions: HEK-293T, at 10 µM
[13] = target: Cyclin-C/Cyclin-dependent kinase 19 (Homo sapiens) (UniProt Q9BWU1+P24863); assay: Selectivity interaction (NanoBRET assay in HEK293T cells) EUB0001631a CDK19; assay type: cell-based; conditions: HEK-293T, at 10 µM
[14] = target: Cyclin-dependent kinase 2/cyclin E (Homo sapiens) (UniProt P24864+P24941+O96020); assay: Selectivity interaction (KinaseProfilerTM (Merck Millipore) ) EUB0001631a CDK2; assay type: protein-complex assay; conditions: at 10 µM
[15] = target: Cyclin-dependent kinase 2/cyclin E1 (Homo sapiens) (UniProt P24864+P24941); assay: Selectivity interaction (NanoBRET assay in HEK293T cells) EUB0001631a CDK2; assay type: cell-based; conditions: HEK-293T, at 10 µM
[16] = target: CDK20/Cyclin H (Homo sapiens) (UniProt P51946+Q8IZL9); assay: Selectivity interaction (NanoBRET assay in HEK293T cells) EUB0001631a CDK20; assay type: cell-based; conditions: HEK-293T, at 10 µM
[17] = target: CDK3/cyclin E (Homo sapiens) (UniProt P24864+O96020+Q00526); assay: Selectivity interaction (KinaseProfilerTM (Merck Millipore) ) EUB0001631a CDK3; assay type: protein-complex assay; conditions: at 10 µM
[18] = target: CDK3/Cyclin E (Homo sapiens) (UniProt P24864+Q00526); assay: Selectivity interaction (NanoBRET assay in HEK293T cells) EUB0001631a CDK3; assay type: cell-based; conditions: HEK-293T, at 10 µM
[19] = target: Cyclin-dependent kinase 4/cyclin D1 (Homo sapiens) (UniProt P11802+P24385); assay: Selectivity interaction (NanoBRET assay in HEK293T cells) EUB0001631a CDK4; assay type: cell-based; conditions: HEK-293T, at 10 µM
[20] = target: T1, Cyclin-dependent kinase 5/CDK5 activator 1 (Homo sapiens) (UniProt Q00535+Q15078); assay: Selectivity interaction (KinaseProfilerTM (Merck Millipore) ) EUB0001631a CDK5; assay type: protein-complex assay; conditions: at 10 µM
T1 sequence (Q00535 whole entry): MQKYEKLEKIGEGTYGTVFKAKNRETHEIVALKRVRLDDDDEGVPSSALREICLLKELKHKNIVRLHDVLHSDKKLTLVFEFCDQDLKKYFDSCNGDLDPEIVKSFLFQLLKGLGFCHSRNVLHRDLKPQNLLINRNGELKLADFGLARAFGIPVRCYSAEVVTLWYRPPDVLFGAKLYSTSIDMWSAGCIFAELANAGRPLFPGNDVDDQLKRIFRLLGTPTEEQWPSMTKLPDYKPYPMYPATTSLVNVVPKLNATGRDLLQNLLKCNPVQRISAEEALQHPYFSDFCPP
T1 sequence (Q15078 99-307 partner limits assumed): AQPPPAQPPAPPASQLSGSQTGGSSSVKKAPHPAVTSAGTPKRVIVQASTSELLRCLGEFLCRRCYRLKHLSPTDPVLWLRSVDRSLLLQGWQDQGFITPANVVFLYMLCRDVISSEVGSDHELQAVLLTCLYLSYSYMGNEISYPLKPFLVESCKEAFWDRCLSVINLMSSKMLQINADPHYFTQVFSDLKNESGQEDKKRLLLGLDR

[21] = target: T1, Cyclin-dependent kinase 5/CDK5 activator 1 (Homo sapiens); assay: Selectivity interaction (NanoBRET assay in HEK293T cells) EUB0001631a CDK5; assay type: cell-based; conditions: HEK-293T, at 10 µM
[22] = target: CDK6/cyclin D1 (Homo sapiens) (UniProt P24385+Q00534); assay: Selectivity interaction (NanoBRET assay in HEK293T cells) EUB0001631a CDK6; assay type: cell-based; conditions: HEK-293T, at 10 µM
[23] = target: Cyclin-dependent kinase 7 (Homo sapiens, UniProt P50613); assay: Selectivity interaction (NanoBRET assay in HEK293T cells) EUB0001631a CDK7; assay type: cell-based; conditions: HEK-293T, at 10 µM
Chain of Cyclin-dependent kinase 7 (P50613 whole entry): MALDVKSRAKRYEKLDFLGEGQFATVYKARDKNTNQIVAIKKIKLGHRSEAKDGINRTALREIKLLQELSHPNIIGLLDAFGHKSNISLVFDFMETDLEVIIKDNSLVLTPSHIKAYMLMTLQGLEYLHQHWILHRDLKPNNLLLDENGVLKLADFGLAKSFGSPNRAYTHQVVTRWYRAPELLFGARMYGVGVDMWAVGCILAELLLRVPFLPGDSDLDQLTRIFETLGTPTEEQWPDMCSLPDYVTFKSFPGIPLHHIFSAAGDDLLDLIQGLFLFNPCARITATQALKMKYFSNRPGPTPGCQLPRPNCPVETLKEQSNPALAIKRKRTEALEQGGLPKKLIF

[24] = target: CDK8/Cyclin C (Homo sapiens) (UniProt P49336+P24863); assay: Selectivity interaction (NanoBRET assay in HEK293T cells) EUB0001631a CDK8; assay type: cell-based; conditions: HEK-293T, at 10 µM
[25] = target: CDK9/Cyclin K (Homo sapiens) (UniProt P50750+O75909); assay: Selectivity interaction (NanoBRET assay in HEK293T cells) EUB0001631a CDK9; assay type: cell-based; conditions: HEK-293T, at 10 µM
[26] = target: T2, Ephrin type-A receptor 1 (Homo sapiens) (UniProt P21709); assay: Selectivity interaction (KinaseProfilerTM (Merck Millipore) ) EUB0001631a EPHA1; conditions: at 10 µM
T2 sequence (whole entry): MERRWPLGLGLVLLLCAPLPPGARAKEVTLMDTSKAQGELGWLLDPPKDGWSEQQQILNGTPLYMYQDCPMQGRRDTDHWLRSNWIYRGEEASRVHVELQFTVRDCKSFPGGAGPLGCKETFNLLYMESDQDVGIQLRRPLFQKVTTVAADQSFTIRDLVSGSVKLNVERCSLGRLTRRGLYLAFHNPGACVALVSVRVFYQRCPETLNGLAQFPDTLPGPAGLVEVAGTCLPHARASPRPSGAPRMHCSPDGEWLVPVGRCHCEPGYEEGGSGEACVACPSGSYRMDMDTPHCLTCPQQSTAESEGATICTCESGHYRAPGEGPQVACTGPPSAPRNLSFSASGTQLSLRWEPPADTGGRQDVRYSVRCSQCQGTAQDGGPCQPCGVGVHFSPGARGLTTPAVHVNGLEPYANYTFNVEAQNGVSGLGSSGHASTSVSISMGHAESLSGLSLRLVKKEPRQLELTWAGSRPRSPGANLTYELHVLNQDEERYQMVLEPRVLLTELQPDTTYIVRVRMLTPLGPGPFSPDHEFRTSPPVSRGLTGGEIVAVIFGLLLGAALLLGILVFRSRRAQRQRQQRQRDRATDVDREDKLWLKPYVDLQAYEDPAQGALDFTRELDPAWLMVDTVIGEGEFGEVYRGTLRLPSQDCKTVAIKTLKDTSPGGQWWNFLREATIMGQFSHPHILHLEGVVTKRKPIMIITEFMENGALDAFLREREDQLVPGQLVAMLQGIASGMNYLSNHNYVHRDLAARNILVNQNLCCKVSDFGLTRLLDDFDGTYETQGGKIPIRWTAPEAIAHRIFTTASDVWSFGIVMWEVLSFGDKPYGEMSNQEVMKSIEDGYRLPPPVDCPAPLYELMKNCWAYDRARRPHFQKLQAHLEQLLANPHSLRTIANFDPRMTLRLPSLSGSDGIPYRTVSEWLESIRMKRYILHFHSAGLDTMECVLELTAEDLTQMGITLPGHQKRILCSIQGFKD

[27] = target: Vascular endothelial growth factor receptor 3 (Homo sapiens, UniProt P35916); assay: Selectivity interaction (KinaseProfilerTM (Merck Millipore) ) EUB0001631a FLT4; conditions: at 10 µM
[28] = target: Tyrosine-protein kinase Fyn (Homo sapiens) (UniProt P06241); assay: Selectivity interaction (KinaseProfilerTM (Merck Millipore) ) EUB0001631a FYN; conditions: at 10 µM
[29] = target: Glycogen synthase kinase-3 alpha (Homo sapiens, UniProt P49840); assay: Selectivity interaction (KinaseProfilerTM (Merck Millipore) ) EUB0001631a GSK3A; conditions: at 10 µM
[30] = target: Glycogen synthase kinase-3 beta (Homo sapiens, UniProt P49841); assay: Selectivity interaction (KinaseProfilerTM (Merck Millipore) ) EUB0001631a GSK3B; conditions: at 10 µM
Chain of Glycogen synthase kinase-3 beta (P49841 whole entry, looked up): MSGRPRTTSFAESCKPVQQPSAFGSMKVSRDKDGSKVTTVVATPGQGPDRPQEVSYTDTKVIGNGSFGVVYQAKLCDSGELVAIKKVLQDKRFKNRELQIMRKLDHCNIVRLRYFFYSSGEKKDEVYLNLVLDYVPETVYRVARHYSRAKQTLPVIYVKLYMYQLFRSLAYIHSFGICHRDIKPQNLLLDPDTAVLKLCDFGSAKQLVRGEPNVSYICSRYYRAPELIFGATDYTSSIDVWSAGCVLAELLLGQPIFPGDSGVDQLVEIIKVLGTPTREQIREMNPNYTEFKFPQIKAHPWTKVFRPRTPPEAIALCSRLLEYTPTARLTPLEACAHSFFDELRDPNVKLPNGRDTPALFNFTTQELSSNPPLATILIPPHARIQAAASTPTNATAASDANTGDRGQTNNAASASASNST

[31] = target: Mast/stem cell growth factor receptor Kit (Homo sapiens, UniProt P10721); assay: Selectivity interaction (KinaseProfilerTM (Merck Millipore) ) EUB0001631a KIT; conditions: at 10 µM
Chain of Mast/stem cell growth factor receptor Kit (P10721 whole entry): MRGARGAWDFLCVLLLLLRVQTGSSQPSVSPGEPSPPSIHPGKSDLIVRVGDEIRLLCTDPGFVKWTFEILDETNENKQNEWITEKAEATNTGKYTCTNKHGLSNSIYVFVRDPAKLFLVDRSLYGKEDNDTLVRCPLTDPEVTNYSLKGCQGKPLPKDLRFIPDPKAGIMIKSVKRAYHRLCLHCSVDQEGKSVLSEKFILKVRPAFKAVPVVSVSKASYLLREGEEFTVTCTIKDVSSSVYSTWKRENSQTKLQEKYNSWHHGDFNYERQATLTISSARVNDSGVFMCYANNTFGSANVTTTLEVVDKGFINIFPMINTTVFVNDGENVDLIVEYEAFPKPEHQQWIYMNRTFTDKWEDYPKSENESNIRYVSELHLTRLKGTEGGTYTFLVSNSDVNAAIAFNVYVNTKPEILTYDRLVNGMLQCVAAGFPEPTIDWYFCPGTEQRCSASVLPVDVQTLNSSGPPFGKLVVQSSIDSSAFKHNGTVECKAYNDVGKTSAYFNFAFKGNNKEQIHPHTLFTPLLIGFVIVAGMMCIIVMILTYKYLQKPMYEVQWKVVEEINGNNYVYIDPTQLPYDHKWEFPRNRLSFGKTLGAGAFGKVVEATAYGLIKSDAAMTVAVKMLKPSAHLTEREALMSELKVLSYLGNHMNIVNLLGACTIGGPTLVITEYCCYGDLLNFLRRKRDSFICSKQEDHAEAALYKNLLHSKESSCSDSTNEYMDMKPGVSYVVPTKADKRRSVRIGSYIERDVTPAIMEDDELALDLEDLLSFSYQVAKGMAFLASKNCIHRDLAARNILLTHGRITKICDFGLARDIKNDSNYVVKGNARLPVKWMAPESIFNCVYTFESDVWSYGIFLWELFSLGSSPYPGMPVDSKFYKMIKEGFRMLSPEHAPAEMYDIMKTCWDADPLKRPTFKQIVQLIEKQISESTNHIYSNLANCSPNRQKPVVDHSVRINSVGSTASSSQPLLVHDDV

[32] = target: High affinity nerve growth factor receptor (Homo sapiens, UniProt P04629); assay: Selectivity interaction (KinaseProfilerTM (Merck Millipore) ) EUB0001631a NTRK1; conditions: at 10 µM
[33] = target: Voltage-dependent P/Q-type calcium channel subunit alpha-1A (Homo sapiens, UniProt O00555); assay: Selectivity interaction (BET inhibitor selectivity panel (Human blocker intracellular Ca2+ fluorescence assay)) EUB0000102c CACNA1A; assay type: cell-based
CREB-binding protein = CREB-binding protein (Homo sapiens, UniProt Q92793); assay: Selectivity interaction (Bromodomain panel (DSF assays, literature)) EUB0000102c CREBBP
[34] = target: 5-hydroxytryptamine receptor 1A (Homo sapiens, UniProt P08908); assay: Selectivity interaction (BET inhibitor selectivity panel (Human SPA binding assay)) EUB0000102c HTR1A
[35] = target: 5-hydroxytryptamine receptor 3A (Homo sapiens, UniProt P46098); assay: Selectivity interaction (BET inhibitor selectivity panel (Human antagonist intracellular Ca2+ fluorescence assay)) EUB0000102c HTR3A; assay type: cell-based
Chain of 5-hydroxytryptamine receptor 3A (P46098 whole entry): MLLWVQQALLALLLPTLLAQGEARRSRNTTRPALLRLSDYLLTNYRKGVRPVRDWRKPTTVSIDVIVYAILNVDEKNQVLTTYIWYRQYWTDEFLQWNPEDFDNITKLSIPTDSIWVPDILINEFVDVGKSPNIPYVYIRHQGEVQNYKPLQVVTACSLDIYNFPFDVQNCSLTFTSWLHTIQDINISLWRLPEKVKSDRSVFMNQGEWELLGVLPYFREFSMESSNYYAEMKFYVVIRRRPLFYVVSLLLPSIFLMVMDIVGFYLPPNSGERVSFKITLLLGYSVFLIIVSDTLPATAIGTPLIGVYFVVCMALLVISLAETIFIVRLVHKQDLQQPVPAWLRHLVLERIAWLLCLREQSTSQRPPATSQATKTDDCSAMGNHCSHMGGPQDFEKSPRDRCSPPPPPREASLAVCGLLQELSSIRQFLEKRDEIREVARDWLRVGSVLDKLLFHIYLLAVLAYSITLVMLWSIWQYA

[36] = target: Potassium voltage-gated channel subfamily E member 1 (Homo sapiens, UniProt P15382); assay: Selectivity interaction (BET inhibitor selectivity panel (Human Blocker ionworks assay)) EUB0000102c KCNE1
[37] = target: Voltage-gated inwardly rectifying potassium channel KCNH3 (Homo sapiens, UniProt Q9ULD8); assay: Selectivity interaction (BET inhibitor selectivity panel (Human FP binding assay)) EUB0000102c KCNH3
[38] = target: Potassium voltage-gated channel subfamily KQT member 1 (Homo sapiens, UniProt P51787); assay: Selectivity interaction (BET inhibitor selectivity panel (Human Blocker ionworks assay)) EUB0000102c KCNQ1
[39] = target: Sodium-dependent noradrenaline transporter (Homo sapiens, UniProt P23975); assay: Selectivity interaction (BET inhibitor selectivity panel (Human SPA binding assay)) EUB0000102c SLC6A2
[40] = target: Substance-K receptor (Homo sapiens) (UniProt P21452); assay: Selectivity interaction (CEREP panel (GPCRs, ion channels, and transporters)) EUB0000102c TACR2; conditions: at 10 µM

COc1cc(F)ccc1-c1ncnc(Nc2cccc(C[S@](C)(=N)=O)c2)n1
% of control [1]: 14%
% of inhibition [2]: 16.6%
% of inhibition [3]: 6.3%
% of inhibition [4]: 10%
% of inhibition [5]: 7.4%
% of inhibition [6]: 8.2%
% of inhibition [7]: 4.8%
% of inhibition [8]: 3%
% of inhibition [9]: 4.5%
% of inhibition [10]: 38.6%
% of inhibition [11]: 31%
% of inhibition [12]: 19.9%
% of inhibition [13]: 11.1%
% of control [14]: 13%
% of inhibition [15]: 41.7%
% of inhibition [16]: 1.3%
% of control [17]: 10%
% of inhibition [18]: 48.4%
% of inhibition [19]: 31.5%
% of control [20]: 20%
% of inhibition [21]: 26.1%
% of inhibition [22]: 64.1%
% of inhibition [23]: 16.8%
% of inhibition [24]: 3%
% of inhibition [25]: 97.9%
% of control [26]: 20%
% of control [27]: 30%
% of control [28]: 24%
% of control [29]: 4%
% of control [30]: 3%
% of control [31]: 6%
% of control [32]: 20%

COc1cc2c(cc1-c1c(C)noc1C)ncc1[nH]c(=O)n([C@H](C)c3ccccn3)c12
IC50 [33]: 1.26 µM
dTM (CREB-binding protein): < 3 K
IC50 [34]: > 100 µM
IC50 [35]: > 50 µM
IC50 [36]: > 25 µM
IC50 [37]: 40 µM
IC50 [38]: > 25 µM
IC50 [39]: > 100 µM
% of inhibition [40]: 48%

Source: ChEMBL document CHEMBL5465560, “Selectivity Literature for EUbOPEN Chemogenomic Library” (2024)
